Source: patent publication US20260199484A1, “PROTAC DEGRADERS OF MLLT1 AND/OR MLLT3” (DARK BLUE THERAPEUTICS LTD, priority 2024, published 2026)

Experiments:
[1] = test system: MV4-11 cells; experiment: MV4-11 cellular proliferative assay, Assay Format B (CTG 2.0, 168 h); format: cell-based; settings: Homo sapiens, Assay Method B, Table 7, read-out: MV4-11 Antiproliferation IC50
How it was run: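 Cells seeded at 600/well in IMDM + 10% FBS, incubated overnight, then exposed 168 h (7 days) at 37 °C to 10 concentrations, 3-fold dilutions from 1 uM or 100 nM top dose (0.3% DMSO final). Viability by CTG 2.0 luminescence as % of DMSO control; curves fitted by four-parameter logistic regression.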

[2] = biological target: T1, MLLT1 (Homo sapiens, UniProt Q03111); experiment: MLLT1 DC50 and Dmax determination in MV4-11 cells (JESS, 4 h); format: cell-based; parameters: endogenous in cells; host or cells: MV4-11 (ATCC CRL-9591); settings: MLLT1 degradation
T1 sequence (Q03111 1-559): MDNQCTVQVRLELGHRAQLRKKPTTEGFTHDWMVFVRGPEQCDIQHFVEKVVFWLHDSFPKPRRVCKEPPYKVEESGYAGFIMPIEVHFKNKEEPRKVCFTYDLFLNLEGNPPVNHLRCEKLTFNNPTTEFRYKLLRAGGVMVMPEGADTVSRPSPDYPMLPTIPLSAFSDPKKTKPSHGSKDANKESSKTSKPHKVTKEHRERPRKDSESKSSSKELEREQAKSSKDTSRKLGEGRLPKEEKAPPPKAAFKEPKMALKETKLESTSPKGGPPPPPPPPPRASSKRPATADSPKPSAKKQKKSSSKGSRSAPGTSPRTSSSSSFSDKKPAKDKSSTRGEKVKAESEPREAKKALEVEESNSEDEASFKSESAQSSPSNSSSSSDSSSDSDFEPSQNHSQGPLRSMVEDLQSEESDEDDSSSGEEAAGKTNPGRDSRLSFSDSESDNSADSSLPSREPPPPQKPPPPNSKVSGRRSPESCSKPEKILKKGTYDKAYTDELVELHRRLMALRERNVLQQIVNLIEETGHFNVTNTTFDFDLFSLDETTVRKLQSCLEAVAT
Description: MLLT1 degradation efficacy of compounds was tested in an automated chemiluminescent detection system (JESS, Cat #004-650). MV4-11 (#CRL-9591, ATCC) were seeded at a density of 1.2 million cells/well in a non-treated 6-well cell culture plate in 2.4 mL of complete medium (IMDM+10% FBS+1× Penicillin-Streptomycin). 10 mM DMSO stocks were prepared, and cells were treated with eight concentrations of test compounds, starting from 100 nM, 5-fold dilution, at a final DMSO concentration of 0.1% and incubated for 4 h at 37° C., 5% CO2. Post incubation, cells were centrifuged, washed with HBSS and lysed in 60 μL of RIPA buffer supplemented with Protease inhibitors (sc-24948; Santa Cruz). Protein estimation was done using BCA protein assay kit (23228; Pierce). 4 gg protein lysate (4 μL of 1 μg/μL lysate) was loaded into each well of the JESS cartridge (SM-W004; Bio-techne) and the JESS run was performed using 1:900 dilution of anti-human MLLT1 antibody (ABE2596; Merck) and 1:1200 dilution of anti-human GAPDH antibody (2118; Cell signaling technology) with anti-rabbit secondary detection module (DM-001; Bio-Techne). Post run, data was analysed using “Compass for SW” software for chemiluminescent detection. Peak fit was done using “dropped lines” method. Peak area for MLLT1 and GAPDH was used for the calculation of MLLT1 degradation with respect to DMSO control. Data was shown as “% degradation”. % Degradation was plotted against the respective doses (test compound concentration) and dose-response curve (DRC) was generated using four-parameter logistic equation (non-linear regression). Following parameters for each DRC was captured: DC50 (concentration in nM at which degradation is 50%, interpolated from standard curve and transformed to linear scale), Dmax (maximum % degradation observed). DC50 and Dmax data are captured in Table 7 for Example 1 and Example 110, which is a comparative example.

Compound: Cc1nn(CCCCCCCC#Cc2cccc3c2CN(C2CCC(=O)NC2=O)C3=O)c2cc(C(=O)Nc3cc4[nH]c(CN5CCCC5)cc4cn3)ccc12 (stereo not drawn) [Example 110, 1-(9-(2-(2,6-dioxopiperidin-3-yl)-1-oxoisoindolin-4-yl)non-8-yn-1-yl)-3-methyl-N-(2-(pyrrolidin-1-ylmethyl)-1H-pyrrolo[3,2-c]pyridin-6-yl)-1H-indazole-6-carboxamide]
- IC50 [1]: > 1000 nM
- DC50 [2]: 41 nM
- Dmax ([2]; maximum % degradation observed): 58%
